The target in test [1] is T1, FIH (Homo sapiens, UniProt Q9NWT6).
T1 construct: FIH and GST-tagged HIF-1α 786-826 were prepared as described previously; made in house
The experiment in a line: FIH activity assay: 2-OG consumption detected by OPD derivatisation and fluorescence. It counts as biochemical. The settings on record: for effect on 2-OG consumption by FIH: inhibitor 1 mM, in the presence of prime substrate and 2-OG, FIG. 7. On the procedure: The assay of FIH activity was carried out by mixing 1 mM DTT, 0.6 mg/ml catalase, 2-OG, substrate and 50 mM Tris/HCl pH 7.5 to a final volume of 88 μl warming to 37° C. for 5 minutes in a water bath. Simultaneously, the enzyme and iron (prepared as 500 mM stock in 20 mM HCl, and diluted with water) were mixed at room temperature for 3 minutes. Reaction was initiated by addition of 12 μl of enzyme/iron mix to the substrate/cofactor mix. The reaction was stopped by addition of 200 μl 0.5M HCl; derivatisation was then achieved by the addition of 100 μl 10 mg/ml OPD in 0.5M HCl, and heating for 10 minutes at 95° C. in a heating block.

The target of test [2] is T2, PHD2 (Homo sapiens, UniProt Q9GZT9).
T2 construct: a form of the enzyme that has had the first 180 amino acids (including those containing a MYND finger motif) removed; made in house; host or cells: Escherichia coli BL21(DE3)
Kind of test: PHD2 activity assay: 2-OG consumption detected by OPD derivatisation and fluorescence. Type of test: biochemical. The settings on record: inhibitor 1 mM; Tris and HEPES buffers; FIG. 9. The source says:
The PHD2 used was a form of the enzyme that has had the first 180 amino acids (including those containing a MYND finger motif) removed. Thus the enzyme, after removal of the affinity tag, has a N-terminus of […]; we have found this form of PHD2 to be preferred in the in vitro assays. The enzyme was expressed from the pET28a(+) vector (Novagen), with the gene cloned between NheI and BamHI restriction sites. Growth and induction were using standard techniques, in that the pET28a(+) vector was transformed into BL21(DE3) Escherichia coli cells, and grown in 2TY medium at 37° C. until the absorbance of the solution of 600 nm was 0.8. IPTG was added to a final concentration of 0.5 mM and growth was continued for three hours. Affinity purification using Novagen His-Bind resin was as per the manufacturers instructions.
The assay was carried out as for the FIH, but the buffer used was 50 mM HEPES pH7.0.

T1 sequence (Q9NWT6 whole entry): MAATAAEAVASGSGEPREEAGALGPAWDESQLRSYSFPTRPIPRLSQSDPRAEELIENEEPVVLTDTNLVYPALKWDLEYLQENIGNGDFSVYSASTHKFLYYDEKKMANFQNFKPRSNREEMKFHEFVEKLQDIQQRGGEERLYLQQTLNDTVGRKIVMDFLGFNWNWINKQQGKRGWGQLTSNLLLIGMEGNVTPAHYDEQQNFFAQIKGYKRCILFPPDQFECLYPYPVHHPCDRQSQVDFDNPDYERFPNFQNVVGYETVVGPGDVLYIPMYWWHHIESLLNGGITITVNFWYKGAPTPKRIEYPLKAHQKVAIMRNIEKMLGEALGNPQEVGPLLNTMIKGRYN
T2 sequence (Q9GZT9 with tags, fused parts or gaps): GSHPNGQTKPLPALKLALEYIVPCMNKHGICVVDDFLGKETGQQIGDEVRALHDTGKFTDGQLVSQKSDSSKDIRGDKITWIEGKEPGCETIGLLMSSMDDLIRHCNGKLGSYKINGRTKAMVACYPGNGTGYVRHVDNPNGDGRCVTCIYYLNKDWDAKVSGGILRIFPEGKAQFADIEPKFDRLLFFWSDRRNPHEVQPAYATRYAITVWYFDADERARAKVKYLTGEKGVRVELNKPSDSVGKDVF

Regarding `O=C(O)c1c[nH]c2c(ccc3cccnc32)c1=O` [FG0041], the “effect on 2-OG consumption by FIH” value in test [1] is “eliminated the 2-OG consumption by FIH”.

As to `O=C(O)CNC(=O)C(=O)O` [N-oxalylglycine], in test [1], the midpoint of inhibition, the IC50, lay at 40 µM and the “effect on 2-OG consumption by FIH” value is reported as “eliminated the 2-OG consumption by FIH”.

In the case of `O=C(O)C(=O)N[C@H](Cc1ccccc1)C(=O)O` [NOFD, N-oxalyl-D-phenylalanine], the “inhibition of PHD2” value in test [2] is listed as “little, if any, inhibition of PHD2”.
